In patent publication US20260158158A1, “ANTIBODY-DRUG CONJUGATE, PREPARATION METHOD THEREFOR AND USE THEREOF” (HANGZHOU ADCORIS BIOPHARMA CO., LTD, priority 2023, published 2026):

What was measured:
Assay type in all cases: in vivo, BALB/c nude mice
[1] = system: Pancreatic cancer cell BXPC-3; experiment: Tumor growth inhibition in BXPC-3 CDX model (nude mouse xenograft); conditions: BIW × 3 weeks
Source text: (§1) Method for testing tumor inhibitory activity of ADC in nude mouse xenograft model (cell-derived xenograft, CDX): Pancreatic cancer cell BXPC-3, lung adenocarcinoma cell NCI-H1975, triple-negative breast cancer cell MDA-MB-231, and esophageal squamous carcinoma cell KYSE-150 were subjected to monolayer culturing in vitro. When cell saturation reached 80%-90%, the cells were digested with trypsin-EDTA and centrifuged. The supernatant was discarded. The cells were re-suspended in PBS. The cell suspension was adjusted to an appropriate concentration. BXPC-3, NCI-H1975, MDA-MB-231, and KYSE-150 cells (2-10×10^6 cells/0.1 mL) were separately subcutaneously inoculated into BALB/c nude mice. The animals and the growth of transplanted tumors were observed regularly. When the tumor volume reached approximately 100-200 mm^3, the mice were randomly divided into groups based on tumor volume and body weight, with 6 animals per group. The animals were administered regularly via intravenous injection. Twice a week, the longer diameter a (mm) and shorter diameter b (mm) of the tumor were measured with a vernier caliper and the body weight of the mice was measured. The tumor volume (V) was calculated according to the following formula: V=½×a×b^2 (mm^3), in which a and b represented the length and width of the tumor, respectively. A growth curve was plotted. Finally, the tumor was excised and weighed. […]

[2] = system: lung adenocarcinoma cell NCI-H1975; experiment: Tumor growth inhibition in NCI-H1975 model (nude mouse xenograft); conditions: NCI-H1975, 10 mg/kg iv, BIW × 2 weeks
Source text: as §1

[3] = system: triple-negative breast cancer cell MDA-MB-231; experiment: Tumor growth inhibition in MDA-MB-231 CDX model (nude mouse xenograft); conditions: 10 mg/kg iv, BIW × 3 doses
Source text: as §1

[4] = system: esophageal squamous carcinoma cell KYSE-150; experiment: Tumor growth inhibition in KYSE-150 CDX model (nude mouse xenograft); conditions: 10 mg/kg iv, BIW × 2 weeks
Source text: as §1

Compound: CC[C@@]1(O)C(=O)OCc2c1cc1n(c2=O)Cc2c-1nc1cc(F)c(C)c3c1c2[C@@H](NC(=O)CONC)CC3 [Compound 10]
- Tumor inhibition on D33 ([1]; 0.12 mg/kg iv): 16.75%

Compound: Nc1ccn([C@@H]2O[C@H](CO)[C@@H](O)C2(F)F)c(=O)n1 [Gemcitabine]
- Tumor inhibition on D33 ([1]; 90 mg/kg iv): 41.52%

Compound: CC(=O)O[C@H]1C(=O)[C@@]2(C)[C@H]([C@H](OC(=O)c3ccccc3)[C@]3(O)C[C@H](OC(=O)[C@H](O)[C@@H](NC(=O)c4ccccc4)c4ccccc4)C(C)=C1C3(C)C)[C@]1(OC(C)=O)CO[C@@H]1C[C@@H]2O [Paclitaxel]
- Tumor inhibition on D21 [2]: 94.5%
- Tumor inhibition on D25 [3]: 79.96%
- Tumor inhibition on D21 [4]: 78.00%
